These results are taken from US20090306083A1, “Use of Trifluoromethyl Substituted Benzamides in teh Treatment of Neurological Disorders” (Novartis AG, priority 2006, published 2009).

For orientation: melting point means the temperature of the solid-liquid transition.

The first series deals with T1, EphA4 receptor (Mus musculus, UniProt Q03137).
T1 construct: The brains were removed and one half of each brain was weighed and homogenized; from tissue; host or cells: mouse brain (NMRI mice), homogenate
T1 sequence (Q03137 20-986): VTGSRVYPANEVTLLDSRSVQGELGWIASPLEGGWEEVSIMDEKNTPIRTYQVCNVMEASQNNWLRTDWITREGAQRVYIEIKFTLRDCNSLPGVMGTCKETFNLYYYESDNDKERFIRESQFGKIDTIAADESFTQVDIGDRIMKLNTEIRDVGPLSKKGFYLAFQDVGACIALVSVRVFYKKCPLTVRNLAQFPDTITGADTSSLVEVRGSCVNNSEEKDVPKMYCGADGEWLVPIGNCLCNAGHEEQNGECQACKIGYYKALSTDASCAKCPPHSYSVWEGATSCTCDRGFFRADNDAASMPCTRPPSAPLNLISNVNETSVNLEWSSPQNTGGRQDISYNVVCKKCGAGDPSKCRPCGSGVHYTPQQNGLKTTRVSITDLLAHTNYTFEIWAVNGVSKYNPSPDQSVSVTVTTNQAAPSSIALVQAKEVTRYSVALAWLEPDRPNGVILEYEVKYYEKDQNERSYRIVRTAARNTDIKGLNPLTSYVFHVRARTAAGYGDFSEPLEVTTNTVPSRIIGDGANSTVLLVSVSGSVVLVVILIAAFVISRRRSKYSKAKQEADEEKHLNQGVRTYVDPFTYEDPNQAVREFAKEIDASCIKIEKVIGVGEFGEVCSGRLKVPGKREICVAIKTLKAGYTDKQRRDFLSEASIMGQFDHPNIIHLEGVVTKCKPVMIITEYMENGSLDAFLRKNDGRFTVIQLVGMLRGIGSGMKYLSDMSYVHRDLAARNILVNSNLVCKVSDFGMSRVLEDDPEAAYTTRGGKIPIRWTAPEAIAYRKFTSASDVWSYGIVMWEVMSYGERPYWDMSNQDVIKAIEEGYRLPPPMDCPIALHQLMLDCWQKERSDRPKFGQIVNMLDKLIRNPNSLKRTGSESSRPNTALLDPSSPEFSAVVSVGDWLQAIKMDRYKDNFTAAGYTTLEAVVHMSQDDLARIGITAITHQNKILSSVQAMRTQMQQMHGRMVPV
The experiment in a line: Proof of mechanism: EphA4 phosphorylation in vivo in mouse brain (EphA4 immunoprecipitation, phospho-tyrosine Western blot). On the set-up: species or system NMRI mice. Particulars: i.v. dose 10 mg/kg; sacrificed 25 minutes or 1 hour after dosing; brain homogenate. How it is done: Male NMRI mice were injected with relevant compounds at a dose of 10 mg/kg body weight and were sacrificed either 25 minutes or 1 hour following the dosing (0.25 h or 1 h shown in FIG. 4). The brains were removed and one half of each brain was weighed and homogenized in appropriate volume of lysis buffer for 30 seconds (10 seconds pulse and 10 seconds off—3 times). The homogenate was spun at 12,000 g for 30 minutes. Protein amounts were estimated for supernatants (using BCA) and equal amounts of protein for each condition were subjected to EphA4 immunoprecipitation followed by a phospho-tyrosine western blot. Four control animals were used and three experimental animals per time point were used for each of the compounds tested.
A general note: In western blotting, separated proteins are transferred to a membrane and probed.
As for `Cc1ccc(C(=O)Nc2cccc(C(F)(F)F)c2)cc1-c1ccc2ccncc2c1` [Compound 3, 3-Isoquinolin-7-yl-4-methyl-N-(3-trifluoromethyl-phenyl)-benzamide], the “EphA4 phosphorylation in vivo in mouse brain” value is “block EphA4 phosphorylation in vivo in mouse brain”.

In a further series the test system is astrocytes. The experiment in a line: Astrocyte scratch wound assay (in vitro assay for astrogliosis). The settings on record: cytokines (TGF-α, LIF, and IFN) plus 10 nM compound; serum free=1. Type of series: cell-based, C57BL/6 mice. How it is done:
Assay Astrocytes are prepared from the cerebral cortex of neonatal C57BL/6 mice(P1-P2). Cells are maintained in Dulbecco's modified Eagle's medium with 10% FBS. 4-7 weeks old astrocytes are plated to confluence in 2 well chamber slides coated with poly-D-lysine for the scratch wound assay and serum starved. 48 hrs after serum starvation, the monolayer of astrocytes is scratched with sterile 200 μl tips and washed twice with PBS to get rid of cell debris. Conditioned medium (±cytokines) is added to the wounded astrocytes. The microscopic images of the scratch is captured at a magnification of 10× right after scratch and considered as time point 0.24 hrs, 48 hrs or 72 hrs after scratch, the same region of scratch is imaged and fixed with methanol containing 1 μg/ml of DAPI to monitor migration and proliferation of astrocytes.
Consider `Cc1ccc(C(=O)Nc2cccc(C(F)(F)F)c2)cc1-c1ccc2ccncc2c1` [Compound 3, 3-Isoquinolin-7-yl-4-methyl-N-(3-trifluoromethyl-phenyl)-benzamide], for which the “astrocyte migration induced by cytokines (relative area of cell migration compared to control)” value was “block astrocyte migration induced by cytokines”.

Test system in the next series: not given
Experiment: not given
Conditions: not given
As to `Cc1ccc(NC(=O)c2cccc(C(F)(F)F)c2)cc1-c1ccc2cnncc2c1` [Compound 7, N-(4-Methyl-3-phthalazin-6-yl-phenyl)-3-trifluoromethyl-benzamide], the melting point lay within 205 to 206 °C.

For `Cc1ccc(C(=O)Nc2cccc(C(F)(F)F)c2)cc1-c1ccc2ncsc2c1` [Compound 6, 3-Benzothiazol-6-yl-4-methyl-N-(3-trifluoromethyl-phenyl)-benzamide], the melting point fell in the range of 102 to 104 °C.

`Cc1ccc(C(=O)Nc2cccc(C(F)(F)F)c2)cc1-c1ccc2scnc2c1` [Compound 10, 3-Benzothiazol-5-yl-4-methyl-N-(3-trifluoromethylphenyl)benzamide]: the melting point was 200 to 202 °C.

On to `Cc1ccc(NC(=O)c2cccc(C(F)(F)F)c2)cc1-c1ccc2ccncc2c1` [Compound 1, N-(3-Isoquinolin-7-yl-4-methyl-phenyl)-3-trifluoromethyl-benzamide], for which the melting point fell in the range of 148 to 152 °C.

In the case of `Cc1ccc(NC(=O)c2cccc(C(F)(F)F)c2)cc1-c1ccc2scnc2c1` [Compound 9, N-(3-Benzothiazol-5-yl-4-methyl-phenyl)-3-trifluoromethyl-benzamide], the melting point was in the range of 90 to 93 °C.

The compound `Cc1ccc(C(=O)Nc2cccc(C(F)(F)F)c2)cc1-c1ccc2cnncc2c1` [Compound 8, 4-Methyl-3-phthalazin-6-yl-N-(3-trifluoromethyl-phenyl)-benzamide] gave a melting point of 270 to 272 °C.

The compound `Cc1ccc(NC(=O)c2cccc(C(F)(F)F)c2)cc1-c1ccc2ncsc2c1` [Compound 5, N-(3-Benzothiazol-6-yl-4-methyl-phenyl)-3-trifluoromethyl-benzamide] had a melting point of 94 to 96 °C.
